Results taken from PMC3834726 (Clinical cancer research : an official journal of the …, 2012).
Where two headings read alike, the source gives them in different places.

Assays:
blood 20S proteasome = experiment: Pharmacodynamics: blood 20S proteasome activity; type: in vivo, human
advanced malignancies = experiment: Tumor response; type: in vivo, human
[1] = human, in vivo
[2] = potent inhibitor of CYP2C19; cited from earlier work
[3] = including patients on dialysis; cited from earlier work

## CC(C)C[C@H](NC(=O)[C@H](Cc1ccccc1)NC(=O)c1cnccn1)B(O)O [bortezomib, Bortezomib]
Blood 20S proteasome; 0.5 mg/m^2, severe hepatic impairment (data not shown)
  Magnitude of percent inhibition of blood 20S proteasome activity: lower than that observed at the higher dose levels
Blood 20S proteasome; across dose levels and hepatic function groups, first post-dose time point
  Time of maximum mean percent inhibition of blood 20S proteasome activity: 1 h
Blood 20S proteasome; normal hepatic function group, 1.3 mg/m^2, day 1
  Mean percent inhibition of 20S proteasome activity at 24 hours post dose: approximately 31%
Advanced malignancies; all hepatic function groups
  Patients achieving stable disease: five
Advanced malignancies; all patients
  Patients with progressive disease as best response: 35
  Study discontinuation due to disease progression: 37 (61%) n (%)
Advanced malignancies; mild impairment group
  Study discontinuation due to disease progression: 11 (65%) n (%)
Advanced malignancies; moderate impairment group
  Study discontinuation due to disease progression: 9 (75%) n (%)
Advanced malignancies; normal function group
  Study discontinuation due to disease progression: 8 (57%) n (%)
Advanced malignancies; severe impairment group
  Study discontinuation due to disease progression: 9 (50%) n (%)
[1]
  Disposition kinetics: multi-exponential disposition kinetics
  Dose calculated to match exposures at 1.3 mg/m^2 in normal hepatic function: approximately 0.8 mg/m^2
  Increase in dose-normalized AUC (systemic exposure): approximately 60%
  Increase in mean dose-normalized AUC0-tlast: approximately 60%
  Observed mean increase in dose-normalized AUC relative to normal hepatic function group: 1.6 fold
All patients
  Deaths during the study: 15
  Died during treatment (reason for study discontinuation): 2 (3%) n (%)
All patients, N=61
  On-study deaths: 15 (25) n (%)
All patients, of 15 deaths
  Deaths due to disease progression: 12
human, in vivo
  Anorexia, any grade: 19 (31) n (%)
  Any AE: 59 (97) n (%)
  Any drug-related AE: 40 (66) n (%)
  Any grade ≥3 AE: 49 (80) n (%)
  Any grade ≥4 AE: 22 (36) n (%)
  Any serious AE: 28 (46) n (%)
  Decreased platelet count, any grade: 18 (30) n (%)
  Decreased platelet count, grade ≥3: 7 (11) n (%)
  Discontinuation due to grade 3 hypotension: 1 patient
  Discontinuation due to grade 4 elevated blood bilirubin: 2 patients
  Dyspnea, any grade: 19 (31) n (%)
  Elevated AST, incidence: 7%
  Elevated blood bilirubin, rate: 7%
  Fatigue, any grade: 31 (51) n (%)
  Fatigue, grade ≥3: 9 (15) n (%)
  Increased AST, grade ≥3: 6 (10) n (%)
  Increased blood bilirubin, grade ≥3: 7 (11) n (%)
  Nausea, any grade: 24 (39) n (%)
  Rate of grade ≥3 AEs: 71%
  Rate of grade ≥4 AEs: 14%
In vivo
  Dose-limiting toxicity (DLT): none of these events met the protocol-defined criteria for DLT
  Relation of elevations in liver function test parameters to drug: not considered to be drug-related
Mild impairment, 1.0 mg/m^2, n=6
  On-study deaths: 0 n (%)
Mild impairment, 1.3 mg/m^2, n=11
  On-study deaths: 4 (36) n (%)
Moderate impairment, 0.7 mg/m^2, n=9
  On-study deaths: 2 (22) n (%)
Moderate impairment, 1.0 mg/m^2, n=3
  On-study deaths: 0 n (%)
Normal hepatic function, 1.3 mg/m^2, N=14
  On-study deaths: 2 (14) n (%)
Severe impairment, 0.5 mg/m^2, n=5
  On-study deaths: 2 (40) n (%)
Severe impairment, 0.7 mg/m^2, n=6
  On-study deaths: 3 (50) n (%)
Severe impairment, 1.0 mg/m^2, n=7
  On-study deaths: 2 (29) n (%)
[2]
  Bortezomib exposure on co-administration of omeprazole: unaffected
[3]
  Pharmacokinetics in varying grades of renal impairment: not altered
